From paper PMC5896266, “Development of Matrix Metalloproteinase-2 Inhibitors for Cardioprotection” (Frontiers in Pharmacology, 2018)

Legend:
MMP-1 = target: T1, MMP-1 (Homo sapiens, UniProt P03956); test: MMP-1 inhibition (inhibitory profile); type: biochemical; conditions: Table 2
T1 sequence (P03956 100-469): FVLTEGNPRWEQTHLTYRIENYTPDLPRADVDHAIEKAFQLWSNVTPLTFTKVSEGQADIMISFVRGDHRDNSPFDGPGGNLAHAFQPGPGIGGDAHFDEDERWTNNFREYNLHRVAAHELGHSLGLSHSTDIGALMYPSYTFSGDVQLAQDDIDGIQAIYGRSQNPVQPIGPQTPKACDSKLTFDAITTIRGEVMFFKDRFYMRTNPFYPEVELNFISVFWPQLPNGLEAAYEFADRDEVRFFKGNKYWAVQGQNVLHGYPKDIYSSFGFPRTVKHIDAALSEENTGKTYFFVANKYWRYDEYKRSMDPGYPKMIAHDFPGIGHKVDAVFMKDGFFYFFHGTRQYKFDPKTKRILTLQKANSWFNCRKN
Experimental: The compounds were measured for MMP-1, 2, 9, 13 to determine their inhibitory profile. Efficiency Index amplifies the two major required effects, selectivity against MMP-1 and the inhibitory activity.

[1] = target: T2, Human MMP-2 catalytic domain (Homo sapiens, UniProt P08253, DEL222-396); test: Fluorometric MMP-2 inhibition assay (MTS), catalytic domain; type: biochemical
T2 construct: Human MMP-2 catalytic domain (residues 110-221, 397-455); made in house
Experimental: In vitro MMP-2 activity was then measured, using a fluorometric assay in a 384 well format. Human MMP-2 catalytic domain (residues 110-221, 397-455) (Feng et al., [2000]) was expressed in E. coli in form of inclusion bodies. The protein was refolded and then purified by means of Ni-NTA affinity and anion exchange chromatography. Inhibition assays were carried out in 50 mM Tris, 5 mM CaCl2, 300 mM NaCl, 20 μM ZnSO4, pH = 7.5 buffer. For inhibition studies the catalytic domain of the enzyme was pre-incubated with varying amount of inhibitor for 30 min. […] After 1 h incubation at 37°C the fluorescence was detected using a Wallac 1420 Victor2 microplate reader at 320 nm/405 nm Ex/Em wavelength. As an alternative substrate we also used 5-FAM-Pro-Leu-Gly-Leu-Dap(QXL™ 520)-Ala-Arg-NH2, where the fluorescence was detected at 485 nm/520 nm. For each inhibitor candidate, the percentage of inhibition was determined in duplicate experiments at six inhibitor concentrations, chosen to observe a 5–95% range of inhibition.
Since hydroxamic acids are reported as the primary zinc-binding motif, we intended to select such a library from the AMRI 200,000 member non-exclusive compound repository as a starting point of our drug discovery efforts. Since only a few compounds were available in the repository as hydroxamic acids and the conversion of acids to hydroxamic acids were not applicable to HT parallel synthesis, we decided first to select free acids from the AMRI's compound collection. […] The selected acids were screened in a fluorescent assay using a recombinant human MMP-2 catalytic fragment and a synthetic peptide substrate. […] The hydroxamic acid pairs of the previously measured acids were then tested.

isolated rat hearts = test: Myocardial infarct size in isolated rat heart, global ischemia/reperfusion (Langendorff); conditions: 1 μM; 30 min global ischemia, 120 min reperfusion; vs vehicle
Experimental: Our experiment conforms to the National Institutes of Health Guide for the Care and Use of Laboratory Animals (NIH Pub. No. 85-23, Revised 1996) and also to the EU directive guideline for the care and use of laboratory animals published by the European Union (2010/63/EU) and was approved by the local ethics committee of the University of Szeged. Eight to ten week-old male Wistar rats weighing 300–350 g (Toxicoop Ltd., Budapest, Hungary) were anesthetized intraperitoneally with 60 mg/kg pentobarbital sodium (Euthasol, Produlab Pharma, Raamsdonksveer, The Netherlands). After administration of 500 U/kg heparin through the femoral vein, the heart was isolated and perfused according to Langendorff with oxygenated Krebs-Henseleit buffer at 37°C as previously described (Turan et al., [2006]). […] Heart rate and coronary flow were monitored throughout the perfusion protocol. […]
At the end of the 2-h reperfusion, the right ventricle was removed, hearts were frozen, cut into six 1-mm-thick slices, and incubated in 1% triphenyl-tetrazolium chloride (Sigma-Aldrich; St. Louis, MO) at 37°C to delineate infarcted tissue. Slices were then fixed and quantified by planimetry using Infarctsize™ 2.5 software (Pharmahungary, Szeged, Hungary) (Fekete et al., [2013]). Infarct size was expressed as a percentage of the left ventricle.

T2 sequence (P08253 with tags, fused parts or gaps DEL222-396 limits assumed): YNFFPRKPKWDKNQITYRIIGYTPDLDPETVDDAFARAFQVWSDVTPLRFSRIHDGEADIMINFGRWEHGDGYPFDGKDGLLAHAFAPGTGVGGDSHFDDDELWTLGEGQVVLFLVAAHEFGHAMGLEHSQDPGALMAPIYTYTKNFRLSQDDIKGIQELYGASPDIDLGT

**Q.** Which results are given for O=C(O)c1c[nH]c(CN(Cc2ccc(F)cc2)Cc2ccc(OCc3ccccc3)cc2)n1 [MMPI-1154]?
**A.** IC50 (MMP-1): 10 µM; selectivity over MMP-1 ([1]; MMP-2 vs MMP-1, Table 2 values): 1.5 fold; IC50 ([1]; Table 2): 6.6 µM; myocardial infarct size (isolated rat hearts): reduced myocardial infarct size significanly
